Experiments:
CHO-hB2 cell membranes = target: T1, CHO-hB2 cell membranes (Homo sapiens, UniProt P30411); assay: [35S]GTPγS Binding Assay in CHO-hB2 Cell Membranes; assay type: biochemical; settings: for Functional Activity (% Basal): number in parentheses, bradykinin-stimulated [35S]GTPγS binding, test concentration not given; for Functional Activity: word part of the cell, effect on bradykinin-stimulated [35S]GTPγS binding
T1 construct: purchased Receptor Biology, Inc. (Baltimore, MD); host or cells: CHO-hB2 cells (membranes)
T1 sequence (P30411 1-391): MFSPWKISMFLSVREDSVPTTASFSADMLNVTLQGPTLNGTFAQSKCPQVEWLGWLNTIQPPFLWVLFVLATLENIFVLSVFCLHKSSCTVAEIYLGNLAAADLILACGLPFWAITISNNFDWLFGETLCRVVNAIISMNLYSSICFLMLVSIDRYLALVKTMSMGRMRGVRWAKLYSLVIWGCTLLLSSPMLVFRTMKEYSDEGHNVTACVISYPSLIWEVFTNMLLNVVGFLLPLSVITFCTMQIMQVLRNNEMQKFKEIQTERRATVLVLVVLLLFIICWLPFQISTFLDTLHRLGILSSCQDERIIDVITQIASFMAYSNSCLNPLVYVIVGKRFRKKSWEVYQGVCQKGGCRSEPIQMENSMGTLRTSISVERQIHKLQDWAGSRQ
Method: CHO-hB2 cell membranes were purchased from Receptor Biology, Inc. (Baltimore,MD). 10 mg/mL of membrane protein was suspended in 10 mM TRIS-HC pH 7.2, 2 mM EDTA, 10% sucrose.
Membranes were added into 15 mL ice cold binding assay buffer. The assay buffer contained 50 mM HEPES, pH 7.6, 5 mM MgCl2, 100 mM NaCl, 1 mM DTT and 1 mM EDTA. The membrane suspension was homogenized twice with a Polytron and centrifuged at 3000 rpm for 10 min. The supernatant was then centrifuged at 18,000 rpm for 20 min. The pellet was saved in a tube and resuspended.
The pellet membranes (40 µg/mL) were preincubated with SPA (scintillation proximity assay) beads (20 mg/mL) at 25C° for 45 min in the assay buffer. The SPA beads (5 mg/mL) coupled with membranes (10 µg/mL) were then incubated with 0.5 nM [^35S]GTPγS in the same HEPES buffer containing 50 µM GDP in total volume of 200 µL. Bradykinin was used to stimulate [^35S]GTPγS binding. Varying concentrations of drugs were incubated with bradykinin to inhibit bradykinin-stimulated [^35S]GTPγS binding. The basal binding was tested in the absence of bradykinin and no specific binding was tested in the present 10 µM unlabeled GTPγS. The radioactivity was quantified on a Packard Top Count, and calculated. % of Basal = (stimulated binding-non specific binding)/(basal binding-non specific binding) × 100. [formula]

[1] = target: T2, human B2 bradykinin receptors (Homo sapiens, UniProt P30411); assay: Bradykinin B2 (BK2) Receptor Binding Assay; settings: membranes of CHO-K1 cells transfected with human B2 bradykinin receptors; ~0.25 nM [3H]NPC17731; 60 min at 25°C
T2 construct: purchased Receptor Biology, Inc. (Baltimore, MD); host or cells: CHO-K1 cells transfected with the human B2 receptor (membranes)
T2 sequence (P30411 1-391): T1 sequence (P30411 1-391)
Method: Cell membranes of CHO-K1 cells transfected with human B2 bradykinin receptors (CH)-hB2) were purchased from Receptor Biology, Inc. (Baltimore,MD).
Samples were harvested on a Brandel Cell Harvester on to Wallac filtermat B sheets (96 sample format), and washed three times with 2 mL cold HEPES-buffer (10 mM, pH 7.5), and dried in a microwave oven.
The data were used to calculate either the % inhibition compared to control binding (when only a single concentration of test compound was evaluated) or a Ki value (when a range of concentrations were tested). Background was subtracted from mean cpm values and % inhibition was calculated as: [(total dpm-test compound dpm)/(total dpm-nonspecific dpm)]x100. Kd and Ki values were calculated using GraphPad PRISM data analysis program.

Cc1ccc2cccc(OCc3c(Cl)ccc(N(C)C(=O)Cc4ccc(C(=O)CN5CCC(c6ccccc6)CC5)n4C)c3Cl)c2n1 [Compound 58, N-[2,4-Dichloro-3-(2-methyl-quinolin-8-yloxymethyl)-phenyl]-N-methyl-2-{1-methyl-5-[2-(4-phenyl-piperidin-1-yl)-acetyl]-1H-pyrrol-2-yl}-acetamide]
Functional Activity (% Basal) (CHO-hB2 cell membranes): 1 % Basal
Functional Activity (CHO-hB2 cell membranes): No effect
Ki [1]: 293 nM

Cc1ccc2cccc(OCc3c(Cl)ccc(N(C)C(=O)Cc4ccc(C(=O)CN5CCC(Cc6ccccc6)CC5)n4C)c3Cl)c2n1 [Compound 59]
Functional Activity (% Basal) (CHO-hB2 cell membranes): 1 % Basal
Functional Activity (CHO-hB2 cell membranes): No effect
Ki [1]: 291 nM

Cc1ccc2cccc(OCc3c(Cl)ccc(N(C)C(=O)Cc4ccc(C(=O)c5cccs5)n4C)c3Cl)c2n1 [Compound 61]
Functional Activity (% Basal) (CHO-hB2 cell membranes): 12 % Basal
Functional Activity (CHO-hB2 cell membranes): Weak antagonist
Ki [1]: 393 nM

Cc1ccc2cccc(OCc3c(Cl)ccc(N(C)C(=O)Cc4ccc(C(=O)c5ccc(C(=O)N(C)C)cc5)n4C)c3Cl)c2n1 [Compound 62, 4-[5-({[2,4-Dichloro-3-(2-methyl-quinolin-8-yloxymethyl)-phenyl]-methylcarbamoyl}-methyl)-1-methyl-1H-pyrrole-2-carbonyl]-N,N-dimethyl-benzamide]
Functional Activity (% Basal) (CHO-hB2 cell membranes): 59 % Basal
Functional Activity (CHO-hB2 cell membranes): Antagonist
Ki [1]: 204 nM

Cc1ccc2cccc(OCc3c(Cl)ccc(N(C)C(=O)Cc4ccc(C(=O)c5ccc([N+](=O)[O-])cc5)n4C)c3Cl)c2n1 [Compound 63]
Functional Activity (% Basal) (CHO-hB2 cell membranes): 33 % Basal
Functional Activity (CHO-hB2 cell membranes): Antagonist
Ki [1]: 178 nM

COC(=O)c1ccc(C(=O)c2ccc(CC(=O)N(C)c3ccc(Cl)c(COc4cccc5ccc(C)nc45)c3Cl)n2C)cc1 [Compound 64]
Functional Activity (% Basal) (CHO-hB2 cell membranes): 45 % Basal
Functional Activity (CHO-hB2 cell membranes): Antagonist
Ki [1]: 161 nM

Cc1ccc2cccc(OCc3c(Cl)ccc(N(C)C(=O)Cc4ccc(C(=O)c5ccc([N+](=O)[O-])c(C)c5)n4C)c3Cl)c2n1 [Compound 65, N-[2,4-Dichloro-3-(2-methyl-quinolin-8-yloxymethyl)-phenyl]-N-methyl-2-[1-methyl-5-(3-methyl-4-nitro-benzoyl)-1H-pyrrol-2-yl]-acetamide]
Functional Activity (% Basal) (CHO-hB2 cell membranes): 35 % Basal
Functional Activity (CHO-hB2 cell membranes): Antagonist
Ki [1]: 151 nM

Cc1ccc2cccc(OCc3c(Cl)ccc(N(C)C(=O)Cc4ccc(C(=O)c5ccccc5[N+](=O)[O-])n4C)c3Cl)c2n1 [Compound 66]
Functional Activity (% Basal) (CHO-hB2 cell membranes): 35 % Basal
Functional Activity (CHO-hB2 cell membranes): Antagonist
Ki [1]: 169 nM

COc1ccc(C(=O)c2ccc(CC(=O)N(C)c3ccc(Cl)c(COc4cccc5ccc(C)nc45)c3Cl)n2C)cc1 [Compound 68]
Functional Activity (% Basal) (CHO-hB2 cell membranes): 4 % Basal
Functional Activity (CHO-hB2 cell membranes): Weak antagonist
Ki [1]: 189 nM

CSc1ccc(C(=O)c2ccc(CC(=O)N(C)c3ccc(Cl)c(COc4cccc5ccc(C)nc45)c3Cl)n2C)cc1 [Compound 69]
Functional Activity (% Basal) (CHO-hB2 cell membranes): 41 % Basal
Functional Activity (CHO-hB2 cell membranes): Antagonist
Ki [1]: 109 nM

Cc1ccc2cccc(OCc3c(Cl)ccc(N(C)C(=O)Cc4ccc(C(=O)c5ccc(C#N)nc5)n4C)c3Cl)c2n1 [Compound 71]
Functional Activity (% Basal) (CHO-hB2 cell membranes): 79 % Basal
Functional Activity (CHO-hB2 cell membranes): Antagonist
Ki [1]: 74 nM

CC(=O)Nc1cccc(C(=O)c2ccc(CC(=O)N(C)c3ccc(Cl)c(COc4cccc5ccc(C)nc45)c3Cl)n2C)c1 [Compound 72]
Functional Activity (% Basal) (CHO-hB2 cell membranes): 74 % Basal
Functional Activity (CHO-hB2 cell membranes): Antagonist
Ki [1]: 85 nM

Cc1ccc2cccc(OCc3c(Cl)ccc(N(C)C(=O)Cc4ccc(C(=O)c5ccc([S+](C)[O-])cc5)n4C)c3Cl)c2n1 (stereo not drawn) [Compound 73, N-[2,4-Dichloro-3-(2-methyl-quinolin-8-yloxymethyl)-phenyl]-2-[5-(4-methanesuifinyl-benzoyl)-1-methyl-1H-pyrrol-2-yl]-N-methyl-acetamide]
Functional Activity (% Basal) (CHO-hB2 cell membranes): 78 % Basal
Functional Activity (CHO-hB2 cell membranes): Antagonist
Ki [1]: 64 nM

Cc1ccc2cccc(OCc3c(C)ccc(N(C)C(=O)CCc4ccc(C(=O)c5cccs5)n4C)c3C)c2n1 [Compound 80]
Functional Activity (% Basal) (CHO-hB2 cell membranes): 12 % Basal
Functional Activity (CHO-hB2 cell membranes): Weak antagonist
Ki [1]: 141 nM

Cc1ccc2cccc(OCc3c(Cl)ccc(N(C)C(=O)CCc4ccc(C(=O)c5cccs5)n4C)c3Cl)c2n1 [Compound 81]
Functional Activity (% Basal) (CHO-hB2 cell membranes): 1 % Basal
Functional Activity (CHO-hB2 cell membranes): No effect
Ki [1]: 304 nM

Cc1ccc2cccc(OCc3c(C)ccc(N(C)C(=O)CCc4ccc(C(=O)c5ccncc5)n4C)c3C)c2n1 [Compound 82]
Functional Activity (% Basal) (CHO-hB2 cell membranes): 50 % Basal
Functional Activity (CHO-hB2 cell membranes): Antagonist
Ki [1]: 450 nM

Cc1ccc2cccc(OCc3c(Cl)ccc(N(C)C(=O)CCc4ccc(C(=O)c5ccncc5)n4C)c3Cl)c2n1 [Compound 83]
Functional Activity (% Basal) (CHO-hB2 cell membranes): 45 % Basal
Functional Activity (CHO-hB2 cell membranes): Antagonist
Ki [1]: 168 nM

Cc1ccc2cccc(OCc3c(C)ccc(N(C)C(=O)CCc4ccc(C(=O)c5cccnc5)n4C)c3C)c2n1 [Compound 84]
Functional Activity (% Basal) (CHO-hB2 cell membranes): 57 % Basal
Functional Activity (CHO-hB2 cell membranes): Antagonist
Ki [1]: 304 nM

Cc1ccc2cccc(OCc3c(Cl)ccc(N(C)C(=O)CCc4ccc(C(=O)c5cccnc5)n4C)c3Cl)c2n1 [Compound 85]
Functional Activity (% Basal) (CHO-hB2 cell membranes): 65 % Basal
Functional Activity (CHO-hB2 cell membranes): Antagonist
Ki [1]: 15 nM

CC(=O)Nc1ccc(C=CC(=O)NC[C@H]2CCCN2c2ccc(C)c(COc3cccc4ccc(C)nc34)c2C)cn1 [Compound 112, 3-(6-Acetytamino-pyridin-3-yl)-N-{1-[2,4-dimethyl-3-(2-methyl-quinolin-8-yloxymethyl)-phenyl]-pyrrolidin-2-(R)ylmethyl}-acrylamide.]
Functional Activity (% Basal) (CHO-hB2 cell membranes): 59 % Basal
Functional Activity (CHO-hB2 cell membranes): Antagonist
Ki [1]: 54 nM

Cc1ccc2cccc(OCc3c(Cl)cc(Cl)c(N(C)C(=O)Cc4ccc(C(=O)c5ccc(Cl)nc5)n4C)c3Cl)c2n1 [Compound 117, 2-[5-(6-Chloro-pyridine-3-carbonyl)-1-methyl-1H-pyrrol-2-yl]-N-methyl-N-[2,4,6-trichloro-3-(2-methyl-quinolin-8-yloxymethyl)-phenyl]-acetamide]
Functional Activity (% Basal) (CHO-hB2 cell membranes): 35 % Basal
Functional Activity (CHO-hB2 cell membranes): Antagonist
Ki [1]: 86.4 nM
